Results published in patent US4278676A, “Heterocyclic compounds” (H. Lundbeck & Co. A/S, priority 1977, dated 1981).
Like-named read-outs stand apart in the source and are kept apart here.

Experiments:
substantia nigra [1] = assay: Unilateral injections into substantia nigra in rats; type: in vivo, rat
Procedure: (b) Unilateral injections. 0.1 and 0.5 μg of Ia,Hbr have been injected.

GABA uptake system = assay: Interaction with GABA uptake system; type: biochemical; design: dose or concentration left out as unconfirmed
substantia nigra [2] = assay: Bilateral injections into substantia nigra in rats; type: in vivo, rat
Procedure: (a) Bilateral injections. 0.1, 0.5, and 1.0 μg of Ia,HBr have been injected.

[3] = tested on: L-glutamate 1-carboxylase; assay: Interaction with GABA metabolizing enzyme (carboxylase); type: biochemical; conditions: concentrations of 10^-3 M
[4] = target: GABA:2-oxo-glutarate aminotransferase (Homo sapiens, UniProt P80404); assay: Interaction with GABA metabolizing enzyme (aminotransferase); type: biochemical; conditions: concentrations of 10^-3 M
Chain of GABA:2-oxo-glutarate aminotransferase (P80404 29-500): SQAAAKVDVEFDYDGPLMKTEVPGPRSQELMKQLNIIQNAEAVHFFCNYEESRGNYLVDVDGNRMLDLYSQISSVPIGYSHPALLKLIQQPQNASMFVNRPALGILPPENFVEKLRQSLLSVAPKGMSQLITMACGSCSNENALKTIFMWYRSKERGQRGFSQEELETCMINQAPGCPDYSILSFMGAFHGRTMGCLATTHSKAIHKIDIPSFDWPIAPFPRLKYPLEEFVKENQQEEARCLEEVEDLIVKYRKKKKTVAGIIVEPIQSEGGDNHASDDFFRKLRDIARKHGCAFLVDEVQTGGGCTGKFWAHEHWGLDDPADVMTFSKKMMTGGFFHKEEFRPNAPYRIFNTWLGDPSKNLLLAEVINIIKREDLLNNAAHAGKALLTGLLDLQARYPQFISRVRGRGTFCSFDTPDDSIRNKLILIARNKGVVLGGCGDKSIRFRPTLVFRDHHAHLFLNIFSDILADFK

[5] = tested on: lumbar dorsal horn interneurones and Renshaw cells; assay: Microelectrophoretic experiments on central neurones of anaesthetized cats; type: in vivo; conditions: bicuculline methochloride (BMC), cat central neurones
Procedure: In order to study the interactions of the compound Ia with the central GABA receptors in vivo, the compound Ia was tested in microelectrophoretic experiments. Experiments were performed on lumbar dorsal horn interneurones and Renshaw cells of cats anaesthetized with pentobarbitone sodium. The approximate potency of the depressant actions of the compound was assessed relative to that of GABA on the basis of electrophoretic currents required to produce equal and submaximal inhibitions of the firing of the central neurones. The inhibitory action of Ia on central neurones was antagonized by the specific GABA antagonist bicuculline methochloride (BMC).

[6] = tested on: morphine-induced motility; assay: Antagonism of morphine-induced motility; type: in vivo; conditions: Mus musculus; mice; read-out: MED (minimum effective dose), morphine-induced motility
Description: (b) Antagonism of morphine-induced motility (Christensen et al.: Muscimol antagonizes morphine hypermotility without potentiation of analgesia. European J. Pharmacol., 1978, 48, 459-462).

[7] = tested on: methylphenidate-induced gnawing; assay: Potentiation of methylphenidate-induced gnawing; type: in vivo; conditions: Mus musculus, read-out: ED50 (the dose which causes potentiation in 50% of the animals), mice
Description: (a) Potentiation of methylphenidate-induced gnawing (Scheel-Kruger et al.: Muscimol differentially facilitates stereotypy but antagonizes motility induced by dopaminergic drugs. A complex GABA-DOPAMINE interaction. Life Sciences, 1978, Vol. 22, 75-84).

[8] = tested on: isoniazide-induced convulsions; assay: Antagonism of isoniazide-induced convulsions; type: in vivo; conditions: Mus musculus, ip; mice, test compound i.p., isoniazide 300 mg/kg s.c.; read-out: MED (minimum effective dose), isoniazide-induced convulsions
Procedure: (c) Antagonism of isoniazide-induced convulsions (Modification (mice, two times lower concentration of isoniazide) of Mao et al.: Evidence for an involvement of GABA in the mediation of cerebellar c-GMP decrease and the anticonvulsant action of diazepam. Naunyn-Smiedeberg's Arch. Pharmacol. 1975, 289, 369-378).
Conditions and procedure for isoniazide antagonism test:
Isoniazide 300 mg/kg s.c.
Five mice are used for each dose level. Immediately after administration of test substance, isoniazide 300 mg/kg is injected s.c. This dose of isoniazide induces intermittent tonic clonic seizures within 60 minutes. The calculations are performed as on "on line procedure" on the EDP-terminal.

Acute toxicity (mice) = conditions: mouse, in vivo
[9] = iv, read-out: Acute Toxicity (Mice) LD50 i.v.
[10] = po, read-out: Acute Toxicity (Mice) LD50 p.o.

| SMILES | Reversible antagonism by BMC [5] | minimal effective dose [6] [mg/kg] | ED50 [7] [mg/kg] | minimal effective dose [8] [mg/kg] | LD50 (Acute toxicity (mice); [9]) [mg/kg] | LD50 (Acute toxicity (mice); [10]) [mg/kg] | also measured |
| --- | --- | --- | --- | --- | --- | --- | --- |
| Oc1noc2c1CCNC2 [Ia, 4,5,6,7-Tetrahydroisoxazolo[5,4-c]pyridin-3-ol zwitterion] | yes | – | – | – | – | – | Potency compared with muscimol, unilateral injection (substantia nigra [1]; substantia nigra): weaker than muscimol; Interaction with the GABA uptake system (GABA uptake system): did not interact; Potency compared with muscimol, bilateral injection (substantia nigra [2]; substantia nigra): weaker than muscimol; Interaction with L-glutamate 1-carboxylase [3]: did not interact; Interaction with GABA:2-oxo-glutarate aminotransferase [4]: did not interact |
| Oc1noc2c1CCNC2 [Compound Ia,HBr, 3-Hydroxy-4,5,5,7-tetrahydroisoxazolo[5,4-pyridinium bromide] | – | 1 | 3 | 1.3 | 80 | > 320 | Behaviour after unilateral injection into substantia nigra (substantia nigra [1]; 0.1 and 0.5 μg injected): strong and prolonged contralateral turning; Behaviour after bilateral injection into substantia nigra (substantia nigra [2]; 0.1, 0.5 and 1.0 μg injected): pronounced stereotypic behaviour |
| NCc1cc(=O)[nH]o1 [Muscimol, muscimol] | – | – | – | – | 7 | 22 | LD50 (Acute toxicity (mice); ip, read-out: Acute Toxicity (Mice) LD50 i.p.): 12 mg/kg |
| NCCCC(=O)O [GABA, gamma-aminobutyric acid, reference compound] | yes | – | – | – | – | – | – |
| NCc1cc(=O)[nH]o1 [Muscimol,HBr, reference compound] | – | 0.6 | 0.7 | 0.6 | – | – | – |
